Measurements from patent publication US20250268884A1, “Deuterated Domperidone for Treating Gastroparesis” (CinDome Pharma, Inc., priority 2022, published 2025).

Experiments:
[1] = clinical; settings: human, plasma, oral
Procedure: The following PK parameters were calculated for deuterated domperidone from plasma concentrations (Day 1) using a noncompartmental method, if the data permitted: • Cmax determined directly from the concentration-time profile.
[formula] • λz calculated from a semi-logarithmic plot of the plasma concentration versus time curve. The parameter was calculated by linear least-squares regression analysis using points in the terminal logarithmic-linear phase; • T½ calculated as natural logarithm (2)/λz; • CL/F calculated as Dose/AUC0-∞; • Vz/F calculated as Dose/(λz×AUC0-∞); • Rcmax calculated as Cmax on Day 14/Cmax on Day 1; and • RAUC calculated as AUCtau on Day 14/AUCtau on Day 1.

[2] = tested on: cardiac conduction (QRS interval) in healthy subjects; settings: human, in vivo
Procedure: Categorical T-wave morphology analysis and measurement of PR and QRS intervals were fully performed manually using a semi-automated process in 3 of the 10 ECG replicates at each time point. Final quality control and diagnostic interpretations were performed by the study cardiologist.
An unstructured covariance structure was used to specify the repeated measures at post-dose time points for subject within treatment period. The model also included a subject-specific random effect.

[3] = tested on: healthy subjects; settings: in vivo
Procedure: Categorical T-wave morphology analysis and measurement of PR and QRS intervals were fully performed manually using a semi-automated process in 3 of the 10 ECG replicates at each time point.
Treatment A: 30 mg CIN-102 [representing approximate steady-state therapeutic exposures in subject population]; Treatment B: 100 mg CIN-102 [representing potential steady-state supratherapeutic exposures in subjects]; Treatment C: 400 mg open-label moxifloxacin; Treatment D: CIN-102 placebo. A subject can appear in more than 1 category. The denominator (Total) is defined as the number of subjects or time points in the QT/QTc population for each treatment.

[4] = tested on: heart rate in healthy subjects; experiment: Thorough QT study, placebo-corrected change-from-baseline HR (ΔΔHR); type: in vivo, human
[5] = 10 mg dose, healthy subjects
[6] = Thorough QT study, plasma pharmacokinetics; type: in vivo, human; settings: healthy subjects
From the text: Blood samples for PK determination were drawn at the same time points immediately after the ECG extractions.

## [2H]c1c([2H])c([2H])c2c([nH]c(=O)n2CCCN2CCC(n3c(=O)[nH]c4cc(Cl)ccc43)CC2)c1[2H] [Deudomperidone, 1-{3-[4-(5-chloro-2-oxo-2,3-dihydro-1H-1,3-benzodiazol-1-yl)piperidin-1yl]propyl}-2,3-dihydro(4,5,6,7-D4)-1H-1,3-benzodiazol-2-one]
[1]; 5 mg, Tmax, Day 1 (single dose), 5 mg BID, median, plasma deuterated domperidone
  Tmax: 2 h
[1]; 5 mg, Tmax, Day 14 (steady state), 5 mg BID, median, plasma deuterated domperidone
  Tmax: 2 h
[1]; 10 mg, Tmax, Day 1 (single dose), 10 mg BID, median, plasma deuterated domperidone
  Tmax: 2 h
[1]; 10 mg, Tmax, Day 14 (steady state), 10 mg BID, median, plasma deuterated domperidone
  Tmax: 2 h
[1]; 20 mg, Tmax, Day 1 (single dose), 20 mg QD, median, plasma deuterated domperidone
  Tmax: 2.5 h
[1]; 20 mg, Tmax, Day 14 (steady state), 20 mg QD, median, plasma deuterated domperidone
  Tmax: 2 h
[1]; median Tmax, across dose groups (5 mg BID, 10 mg BID, 20 mg QD), patients with gastroparesis
  Tmax: 2 to 2.5 h
[2]
  LS mean placebo-corrected ΔQRS (ΔΔQRS): ±1.1 ms
[3]
  PR or QRS outliers: no PR or QRS outliers
  treatment-emergent U waves: no treatment-emergent U waves
[4]; 30 mg treatment group, at 5 time points
  bradycardic outliers: 1
[4]; 0.5 H Post Dose, 30 mg CIN-102 (Treatment A)
  ΔΔHR LS Mean: −0.5 bpm
[4]; 0.5 H Post Dose, 100 mg CIN-102 (Treatment B)
  ΔΔHR LS Mean: −0.5 bpm
[4]; 1 H Post Dose, 30 mg CIN-102 (Treatment A)
  ΔΔHR LS Mean: −1.4 bpm
[4]; 1 H Post Dose, 100 mg CIN-102 (Treatment B)
  ΔΔHR LS Mean: −1.1 bpm
[4]; 1.5 H Post Dose, 30 mg CIN-102 (Treatment A)
  ΔΔHR LS Mean: −1.0 bpm
[4]; 1.5 H Post Dose, 100 mg CIN-102 (Treatment B)
  ΔΔHR LS Mean: −0.7 bpm
[4]; 2 H Post Dose, 30 mg CIN-102 (Treatment A)
  ΔΔHR LS Mean: 0.4 bpm
[4]; 2 H Post Dose, 100 mg CIN-102 (Treatment B)
  ΔΔHR LS Mean: 0.2 bpm
[4]; 2.5 H Post Dose, 30 mg CIN-102 (Treatment A)
  ΔΔHR LS Mean: −0.7 bpm
[4]; 2.5 H Post Dose, 100 mg CIN-102 (Treatment B)
  ΔΔHR LS Mean: −0.8 bpm
[4]; 3 H Post Dose, 30 mg CIN-102 (Treatment A)
  ΔΔHR LS Mean: −1.4 bpm
[4]; 3 H Post Dose, 100 mg CIN-102 (Treatment B)
  ΔΔHR LS Mean: −1.0 bpm
[4]; 4 H Post Dose, 30 mg CIN-102 (Treatment A)
  ΔΔHR LS Mean: 0.0 bpm
[4]; 4 H Post Dose, 100 mg CIN-102 (Treatment B)
  ΔΔHR LS Mean: 0.1 bpm
[4]; 5 H Post Dose, 30 mg CIN-102 (Treatment A)
  ΔΔHR LS Mean: −0.3 bpm
[4]; 5 H Post Dose, 100 mg CIN-102 (Treatment B)
  ΔΔHR LS Mean: −0.8 bpm
[4]; 6 H Post Dose, 30 mg CIN-102 (Treatment A)
  ΔΔHR LS Mean: −0.2 bpm
[4]; 6 H Post Dose, 100 mg CIN-102 (Treatment B)
  ΔΔHR LS Mean: −0.5 bpm
[4]; 8 H Post Dose, 30 mg CIN-102 (Treatment A)
  ΔΔHR LS Mean: 0.7 bpm
[4]; 8 H Post Dose, 100 mg CIN-102 (Treatment B)
  ΔΔHR LS Mean: −0.9 bpm
[4]; 12 H Post Dose, 30 mg CIN-102 (Treatment A)
  ΔΔHR LS Mean: −0.5 bpm
[4]; 12 H Post Dose, 100 mg CIN-102 (Treatment B)
  ΔΔHR LS Mean: −0.8 bpm
[4]; 24 H Post Dose, 30 mg CIN-102 (Treatment A)
  ΔΔHR LS Mean: 1.1 bpm
[4]; 24 H Post Dose, 100 mg CIN-102 (Treatment B)
  ΔΔHR LS Mean: 0.1 bpm
[4]; 36 H Post Dose, 30 mg CIN-102 (Treatment A)
  ΔΔHR LS Mean: 0.5 bpm
[4]; 36 H Post Dose, 100 mg CIN-102 (Treatment B)
  ΔΔHR LS Mean: −0.4 bpm
[4]; 48 H Post Dose, 30 mg CIN-102 (Treatment A)
  ΔΔHR LS Mean: 0.9 bpm
[4]; 48 H Post Dose, 100 mg CIN-102 (Treatment B)
  ΔΔHR LS Mean: 0.5 bpm
[4]; across treatment periods
  tachycardic outliers: no tachycardic outliers
[4]; both dose levels, all post-dose time points
  mean ΔΔHR, by-time point analysis: below 10 bpm
[5]
  Cmax lower than the same oral dose domperidone: approximately 50%
[6]; 30 mg single dose
  time of highest mean plasma concentration of deuterated domperidone: 1.5 hours post-dose
[6]; 100 mg single dose
  time of highest mean plasma concentration of deuterated domperidone: 2 hours post-dose
